What all share (set-up): scale not given: the % may be the effect or the level left
Test [1] has as its target T1, Myosin-IIIb (Homo sapiens) (UniProt Q8WXR4).
T1 sequence (whole entry): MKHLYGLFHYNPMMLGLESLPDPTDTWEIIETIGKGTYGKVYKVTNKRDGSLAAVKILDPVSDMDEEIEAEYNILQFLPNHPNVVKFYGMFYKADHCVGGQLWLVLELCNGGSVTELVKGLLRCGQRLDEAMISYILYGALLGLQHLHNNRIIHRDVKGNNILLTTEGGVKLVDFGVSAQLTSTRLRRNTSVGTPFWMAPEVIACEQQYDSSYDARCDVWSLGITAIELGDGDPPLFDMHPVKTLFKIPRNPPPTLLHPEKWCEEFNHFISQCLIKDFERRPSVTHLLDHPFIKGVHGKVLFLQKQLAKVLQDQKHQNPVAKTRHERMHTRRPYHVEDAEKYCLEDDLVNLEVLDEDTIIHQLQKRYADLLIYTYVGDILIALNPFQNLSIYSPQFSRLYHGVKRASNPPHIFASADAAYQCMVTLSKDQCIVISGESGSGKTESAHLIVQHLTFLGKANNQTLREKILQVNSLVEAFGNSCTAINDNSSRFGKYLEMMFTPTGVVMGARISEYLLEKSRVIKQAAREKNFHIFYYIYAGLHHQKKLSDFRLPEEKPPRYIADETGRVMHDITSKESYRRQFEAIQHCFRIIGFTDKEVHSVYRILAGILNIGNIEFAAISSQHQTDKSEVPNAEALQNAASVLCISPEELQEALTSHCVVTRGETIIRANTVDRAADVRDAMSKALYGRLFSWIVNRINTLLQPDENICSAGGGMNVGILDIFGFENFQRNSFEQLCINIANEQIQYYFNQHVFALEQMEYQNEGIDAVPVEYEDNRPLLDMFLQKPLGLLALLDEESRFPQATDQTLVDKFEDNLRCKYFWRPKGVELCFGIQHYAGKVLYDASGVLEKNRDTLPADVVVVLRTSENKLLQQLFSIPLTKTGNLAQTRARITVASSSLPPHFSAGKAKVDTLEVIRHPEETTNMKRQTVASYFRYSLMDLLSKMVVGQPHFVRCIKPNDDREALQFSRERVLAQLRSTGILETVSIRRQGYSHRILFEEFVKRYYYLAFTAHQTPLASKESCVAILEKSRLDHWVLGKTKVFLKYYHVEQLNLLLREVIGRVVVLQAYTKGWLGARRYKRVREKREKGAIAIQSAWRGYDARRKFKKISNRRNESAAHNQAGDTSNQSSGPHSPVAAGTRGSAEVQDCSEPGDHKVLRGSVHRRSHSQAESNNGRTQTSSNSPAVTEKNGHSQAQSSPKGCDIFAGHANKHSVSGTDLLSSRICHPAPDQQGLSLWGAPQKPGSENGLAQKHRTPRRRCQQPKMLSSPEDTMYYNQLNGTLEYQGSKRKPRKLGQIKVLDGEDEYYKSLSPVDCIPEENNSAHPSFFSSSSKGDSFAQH
In words: Inhibition of human MYO3b assessed as enzyme activity at 1 uM using myelin basic protein as substrate preincubated for 20 mins followed by [gamma-33P]-ATP addition and measured after 120 mins by radiometric Hot-SpotSM Kinase assay relative to control.

Test [2] concerns the target Serine/threonine-protein kinase OSR1 (Homo sapiens) (UniProt O95747). In words: Inhibition of human OSR1 assessed as enzyme activity at 1 uM using RRHYYYDTHTNTYYLRTFGHNTRR as substrate preincubated for 20 mins followed by [gamma-33P]-ATP addition and measured after 120 mins by radiometric Hot-SpotSM Kinase assay relative to control.
The target in test [3] is T2, SNF-related serine/threonine-protein kinase (Homo sapiens) (UniProt Q9NRH2).
T2 sequence (whole entry): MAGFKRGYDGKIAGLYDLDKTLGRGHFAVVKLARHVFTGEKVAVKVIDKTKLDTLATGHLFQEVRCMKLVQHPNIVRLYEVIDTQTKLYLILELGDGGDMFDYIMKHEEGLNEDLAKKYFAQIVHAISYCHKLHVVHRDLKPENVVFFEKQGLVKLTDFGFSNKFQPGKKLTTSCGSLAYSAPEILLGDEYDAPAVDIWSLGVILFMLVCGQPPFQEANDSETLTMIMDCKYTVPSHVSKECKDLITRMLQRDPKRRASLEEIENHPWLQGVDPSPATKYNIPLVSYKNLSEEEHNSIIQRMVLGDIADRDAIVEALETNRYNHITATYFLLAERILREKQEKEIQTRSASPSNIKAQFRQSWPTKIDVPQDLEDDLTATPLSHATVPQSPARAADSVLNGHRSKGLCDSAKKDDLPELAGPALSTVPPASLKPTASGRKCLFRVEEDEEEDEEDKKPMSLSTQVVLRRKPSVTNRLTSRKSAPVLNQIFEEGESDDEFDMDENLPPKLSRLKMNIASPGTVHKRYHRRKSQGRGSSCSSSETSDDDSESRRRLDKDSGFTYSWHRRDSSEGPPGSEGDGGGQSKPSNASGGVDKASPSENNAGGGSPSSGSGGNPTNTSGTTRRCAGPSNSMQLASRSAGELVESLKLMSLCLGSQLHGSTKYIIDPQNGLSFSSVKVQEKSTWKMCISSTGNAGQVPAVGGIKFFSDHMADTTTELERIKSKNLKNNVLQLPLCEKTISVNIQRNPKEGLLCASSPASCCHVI
In words: Inhibition of human SNRK assessed as enzyme activity at 1 uM using myelin basic protein as substrate preincubated for 20 mins followed by [gamma-33P]-ATP addition and measured after 120 mins by radiometric Hot-SpotSM Kinase assay relative to control.

For test [4], the target named is SRSF protein kinase 2 (Homo sapiens) (UniProt P78362). In words: Inhibition of human SRPK2 assessed as enzyme activity at 1 uM using GRSRSRSRSR as substrate preincubated for 20 mins followed by [gamma-33P]-ATP addition and measured after 120 mins by radiometric Hot-SpotSM Kinase assay relative to control.
SRSF protein kinase 2 (Homo sapiens), sequence (P78362 whole entry, looked up): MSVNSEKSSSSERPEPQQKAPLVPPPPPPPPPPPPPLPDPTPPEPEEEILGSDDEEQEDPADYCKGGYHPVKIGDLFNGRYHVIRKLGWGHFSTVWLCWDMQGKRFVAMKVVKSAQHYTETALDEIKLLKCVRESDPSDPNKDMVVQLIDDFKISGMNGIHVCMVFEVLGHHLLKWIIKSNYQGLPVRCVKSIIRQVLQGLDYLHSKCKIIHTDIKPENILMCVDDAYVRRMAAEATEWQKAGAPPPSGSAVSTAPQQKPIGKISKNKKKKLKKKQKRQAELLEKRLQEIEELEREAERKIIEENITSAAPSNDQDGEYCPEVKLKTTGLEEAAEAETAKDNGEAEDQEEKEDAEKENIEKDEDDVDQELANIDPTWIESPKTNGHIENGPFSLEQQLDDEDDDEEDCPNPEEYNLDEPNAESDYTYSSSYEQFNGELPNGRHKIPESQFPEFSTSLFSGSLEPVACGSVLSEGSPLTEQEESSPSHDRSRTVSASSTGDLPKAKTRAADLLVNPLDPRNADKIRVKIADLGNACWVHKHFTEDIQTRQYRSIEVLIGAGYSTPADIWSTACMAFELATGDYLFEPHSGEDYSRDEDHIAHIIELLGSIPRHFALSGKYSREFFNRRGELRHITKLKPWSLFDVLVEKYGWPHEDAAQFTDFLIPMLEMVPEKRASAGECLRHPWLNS

Serine/threonine-protein kinase OSR1 (Homo sapiens), sequence (O95747 2-527 limits assumed): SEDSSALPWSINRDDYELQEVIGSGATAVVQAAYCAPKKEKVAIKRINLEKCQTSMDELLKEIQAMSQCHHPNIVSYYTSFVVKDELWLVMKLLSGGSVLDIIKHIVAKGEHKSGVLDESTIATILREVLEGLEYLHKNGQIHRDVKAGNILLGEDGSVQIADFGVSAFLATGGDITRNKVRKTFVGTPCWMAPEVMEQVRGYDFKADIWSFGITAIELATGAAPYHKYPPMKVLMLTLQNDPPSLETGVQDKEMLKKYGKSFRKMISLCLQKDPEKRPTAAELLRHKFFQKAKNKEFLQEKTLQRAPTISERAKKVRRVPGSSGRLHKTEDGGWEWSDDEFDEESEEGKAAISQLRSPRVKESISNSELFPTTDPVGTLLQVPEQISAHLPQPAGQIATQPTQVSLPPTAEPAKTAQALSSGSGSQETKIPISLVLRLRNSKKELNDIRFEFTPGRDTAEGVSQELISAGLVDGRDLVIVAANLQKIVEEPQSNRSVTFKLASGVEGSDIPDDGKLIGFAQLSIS

On to `C[C@H](Nc1ncnc2nc[nH]c12)c1cc2cccc(Cl)c2c(=O)n1-c1ccccc1`, for which the Activity in test [1] was determined as 114%; in test [2] it was 97.1%; in test [3] it was 96.6%; in test [4] it was 92.3%.

On to `CC[C@H](Nc1ncnc2[nH]cnc12)c1nc2cccc(F)c2c(=O)n1-c1ccccc1`, for which the Activity came to 93.5% in test [1], 93.2% in test [2], 102% in test [3] and 91.3% in test [4].

Consider `CC(C)Oc1ccc(-c2nn([C@@H](C)c3oc4ccc(F)cc4c(=O)c3-c3cccc(F)c3)c3ncnc(N)c23)cc1F` [UMBRALISIB], for which the Activity in test [1] came out at 121%; in test [2], 95.5%; in test [3], 102%; in test [4] it was 86%.

The values above are taken from ChEMBL document CHEMBL5715954, “Silencing c-Myc translation as a therapeutic strategy through targeting PI3Kδ and CK1ε in hematological malignancies” (Blood, 2017).
